Measured values reported in patent US20030199694A1, “Thermally stable trimetrexates and processes for producing the same” (MedImmune Oncology, Inc., priority 1998, published 2003).
Blank lines part the entries; values can stand above or below the compound they belong to.

What was measured:
[1] = Thermal stability of TMH relative to anhydrous trimetrexate: storage at 25° C. or 50° C., HPLC assay, impurities and moisture; assay type: physicochemical
Protocol: Samples of trimetrexate monohydrate and anhydrous trimetrexate were analyzed to compare the thermal stability of anhydrous trimetrexate with the trimetrexate monohydrate of the present invention. Anhydrous trimetrexate was prepared by dehydrating trimetrexate monohydrate. A sample of trimetrexate monohydrate (about 30 g) was placed in a Petri dish and dried in a vacuum dessicator over phosphorus pentoxide. The sample was dried at a pressure of about 100 microns for 6 days. The following procedure was used to assay the purity of trimetrexate monohydrate and anhydrous trimetrexate samples. Samples of the compounds were analyzed by HPLC. The mobile phase is prepared by first dissolving 5 g of sodium dodecyl sulfate (Aldrich 86,201-0 or equivalent) in 1100 mL water and adjusting the pH to 3.0 with glacial acetic acid (about 5 mL). 825 mL of HPLC grade acetonitrile is then added, and the solution mixed thoroughly, while avoiding excessive foaming. The unfiltered solution is then degassed by sonicating for 5 minutes. The solution is degassed immediately before use, and at the beginning of each day. Duplicate standard solutions are prepared with a trimetrexate reference compound at a concentration of 0.2 mg/mL in the mobile phase solution (“STD-1” and “STD-2”). The standard solutions are stored under refrigeration when not in use, and fresh solutions are prepared daily. Sample solutions of anhydrous trimetrexate and trimetrexate monohydrate are also prepared at 0.2 mg/mL in the mobile phase solution. The system is checked before testing the sample solutions by analyzing the reproducibility of trimetrexate peak area measurements for six injections of the standard trimetrexate solution (STD-1), trimetrexate peak symmetry, and agreement between the duplicate standard preparations. The acceptance criteria are as follows: For assay data, the HPLC operating parameters are as follows: [table] For the determination of impurities, the operating parameters are as before, except that the run time is extended to 30 minutes to detect all possible impurities and/or degradation products, and an attenuation of 32 is used. A mobile phase blank is first run, followed by a sample solution. Purity (%w/w)=[(mg found×100%)+mg sample weighed)]×[…] Peak Area (%)=[peak area (imp)÷(Σpeak area (all impurities+TMTX))]×100. Samples of the anhydrous and monohydrate compounds were initially assayed for purity and moisture content. The samples were stored for 4 weeks at either 25° C. or 50° C. HPLC chromatograms were recorded for the samples stored at each temperature after 3 days, 1 week, 2 weeks and 4 weeks of storage, and the samples assayed at each time interval for purity, impurities and water content. […] The peak at about 13 minutes corresponds to the non-degraded compound; this peak is truncated in the Figure in order to expand the y-axis to view the impurities. […] The “amine” entry in Table 9 corresponds to the amine degradation product which is prominent in FIG. 7 as the large peak at about 20 minutes in the anhydrous sample. This degradation product was isolated and identified as 6-aminomethyl-5-methyl-2,4-quinazolinediamine. It is a pale yellow powder, with a molecular formula of C10H13N5 and a formula weight of 203.25 g/mol. The structure of the compound is shown below [drawing 11]

[2] = cited from earlier work
[3] = tested on: murine cell lines such as L1210, L5178Y, S-180, W-256; conditions: cited from earlier work
[4] = tested on: human tumor cells lines derived from breast, colon, lung, ovary, renal and melanoma cells; conditions: human tumor cell lines from breast; cited from earlier work
[5] = tested on: murine tumors such as B16 melanoma, colon 26 and 38, L1210 and p388 leukemia and CD8F mammary tumors; conditions: cited from earlier work
[6] = Hygroscopicity; assay type: physicochemical
[7] = at 37° C.; cited from earlier work
[8] = stored at 25° C., 1 week, monohydrate
[9] = stored at 25° C., 2 weeks, monohydrate
[10] = stored at 25° C., 4 weeks, monohydrate
[11] = stored at 25° C., 3 days, monohydrate
[12] = stored at 50° C., 1 week, monohydrate
[13] = stored at 50° C., 2 weeks, monohydrate
[14] = stored at 50° C., 4 weeks, monohydrate
[15] = stored at 50° C., 3 days, monohydrate

% Moisture ([1]; Initial): 0.1% | Assay ([1]; Initial, before storage, HPLC purity): 98.5 w/w | Total Impurities ([1]; Initial, HPLC): 0.3 % area | Amine ([1]; Initial, degradation product 6-aminomethyl-5-methyl-2,4-quinazolinediamine, HPLC): 0.2 % area | % Moisture ([1]; stored at 25° C., 1 week): 0.4% | Amine ([1]; stored at 25° C., 1 week): 0.3 % area | Assay ([1]; stored at 25° C., 1 week): 96.6 w/w | Total Impurities ([1]; stored at 25° C., 1 week): 0.4 % area | % Moisture ([1]; stored at 25° C., 2 weeks): 0.2% | Amine ([1]; stored at 25° C., 2 weeks): 0.4 % area | Assay ([1]; stored at 25° C., 2 weeks): 98.4 w/w | Total Impurities ([1]; stored at 25° C., 2 weeks): 0.5 % area | % Moisture ([1]; stored at 25° C., 4 weeks): <0.1% | Amine ([1]; stored at 25° C., 4 weeks): 0.8 % area | Assay ([1]; stored at 25° C., 4 weeks): 97.6 w/w | Total Impurities ([1]; stored at 25° C., 4 weeks): 1.0 % area | % Moisture ([1]; stored at 25° C., 3 days): 0.3% | Amine ([1]; stored at 25° C., 3 days): 0.2 % area | Assay ([1]; stored at 25° C., 3 days): 100.4 w/w | Total Impurities ([1]; stored at 25° C., 3 days): 0.4 % area | % Moisture ([1]; stored at 50° C., 1 week): 0.7% | Amine ([1]; stored at 50° C., 1 week): 0.7 % area | Assay ([1]; stored at 50° C., 1 week): 95.0 w/w | Total Impurities ([1]; stored at 50° C., 1 week): 1.2 % area | % Moisture ([1]; stored at 50° C., 2 weeks): 0.3% | Amine ([1]; stored at 50° C., 2 weeks): 1.4 % area | Assay ([1]; stored at 50° C., 2 weeks): 95.8 w/w | Total Impurities ([1]; stored at 50° C., 2 weeks): 2.1 % area | % Moisture ([1]; stored at 50° C., 4 weeks): <0.1% | Amine ([1]; stored at 50° C., 4 weeks): 2.9 % area | Assay ([1]; stored at 50° C., 4 weeks): 92.7 w/w | Total Impurities ([1]; stored at 50° C., 4 weeks): 4.5 % area | % Moisture ([1]; stored at 50° C., 3 days): 0.4% | Amine ([1]; stored at 50° C., 3 days): 0.4 % area | Assay ([1]; stored at 50° C., 3 days): 99.5 w/w | Total Impurities ([1]; stored at 50° C., 3 days): 0.7 % area
SMILES: COc1cc(NCc2ccc3nc(N)nc(N)c3c2C)cc(OC)c1OC [Anhydrous, 2,4-diamino-5-methyl-6-[(3,4,5-trimethoxyanilino)methyl] quinazoline]
water solubility [2]: < 0.1 mg/mL | antitumor activity in vitro [3]: antitumor activity | antitumor activity in vitro [4]: antitumor activity | therapeutic utility in vivo [5]: therapeutic utility

Assay ([1]; Initial, before storage, HPLC purity, monohydrate): 99.6 w/w | Total Impurities ([1]; Initial, HPLC, monohydrate): 0.2 % area | Amine ([1]; Initial, degradation product 6-aminomethyl-5-methyl-2,4-quinazolinediamine, HPLC, monohydrate): 0.1 % area | % Moisture ([1]; Initial, monohydrate): 4.9% | degradation products in HPLC chromatogram ([1]; after 4 weeks at 50° C., FIG. 7): no significant degradation products | % Moisture [1, 8]: 4.5% | Amine [1, 8]: 0.1 % area | Assay [1, 8]: 96.3 w/w | Total Impurities [1, 8]: 0.1 % area | % Moisture [1, 9]: 4.9% | Amine [1, 9]: 0.1 % area | Assay [1, 9]: 99.4 w/w | Total Impurities [1, 9]: 0.1 % area | % Moisture [1, 10]: 4.3% | Amine [1, 10]: 0.1 % area | Assay [1, 10]: 99.6 w/w | Total Impurities [1, 10]: 0.3 % area | % Moisture [1, 11]: 4.7% | Amine [1, 11]: 0.1 % area | Assay [1, 11]: 101.4 w/w | Total Impurities [1, 11]: 0.2 % area | % Moisture [1, 12]: 4.6% | Amine [1, 12]: 0.1 % area | Assay [1, 12]: 98.6 w/w | Total Impurities [1, 12]: 0.2 % area | % Moisture [1, 13]: 4.8% | Amine [1, 13]: 0.1 % area | Assay [1, 13]: 98.7 w/w | Total Impurities [1, 13]: 0.1 % area | % Moisture [1, 14]: 4.4% | Amine [1, 14]: 0.2 % area | Assay [1, 14]: 99.6 w/w | Total Impurities [1, 14]: 0.3 % area | % Moisture [1, 15]: 4.7% | Amine [1, 15]: 0.1 % area | Assay [1, 15]: 99.4 w/w | Total Impurities [1, 15]: 0.3 % area | hygroscopicity [6]: non-hygroscopic
SMILES: COc1cc(NCc2ccc3nc(N)nc(N)c3c2C)cc(OC)c1OC [Monohydrate, trimetrexate monohydrate]

SMILES: COc1cc(NCc2ccc3nc(N)nc(N)c3c2C)cc(OC)c1OC.O=C(O)[C@H]1O[C@H](O)[C@H](O)[C@@H](O)[C@@H]1O [trimetrexate glucuronate]
water solubility [2]: > 50 mg/mL | half-life in solution [7]: 51.6 ± 0.8 days
